Measurements published in PubChem BioAssay (NCI).
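A five-concentration, 48-hour dose response in 96-well plates underlies each endpoint, interpolated linearly between surrounding concentrations. The concentration for 50% growth inhibition is given as GI50. Definition used: TGI = concentration required for complete inhibition of growth.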

Assays:
Test in all cases: NCI anticancer screen, dose series, 48 h
LOX IMVI melanoma = test system: LOX IMVI melanoma
HS 578T breast = test system: HS 578T breast
SK-MEL-2 melanoma = test system: SK-MEL-2 melanoma
COLO 205 colon = test system: COLO 205 colon
UACC-257 melanoma = test system: UACC-257 melanoma
OVCAR-3 ovarian = test system: OVCAR-3 ovarian
ACHN renal = test system: ACHN renal
OVCAR-4 ovarian = test system: OVCAR-4 ovarian
786-0 renal = test system: 786-0 renal
CCRF-CEM leukemia = test system: CCRF-CEM leukemia
NCI-H226 lung = test system: NCI-H226 lung
SK-OV-3 ovarian = test system: SK-OV-3 ovarian
SK-MEL-28 melanoma = test system: SK-MEL-28 melanoma
HCT-116 colon = test system: HCT-116 colon
NCI-H23 lung = test system: NCI-H23 lung
NCI-H460 lung = test system: NCI-H460 lung
SF-295 CNS = test system: SF-295 CNS
SNB-19 CNS = test system: SNB-19 CNS
SF-268 CNS = test system: SF-268 CNS
UACC-62 melanoma = test system: UACC-62 melanoma
IGROV1 ovarian = test system: IGROV1 ovarian
MOLT-4 leukemia = test system: MOLT-4 leukemia
HCT-15 colon = test system: HCT-15 colon
SW-620 colon = test system: SW-620 colon
HCC-2998 colon = test system: HCC-2998 colon
MALME-3M melanoma = test system: MALME-3M melanoma
KM12 colon = test system: KM12 colon
MCF7 breast = test system: MCF7 breast
A549 NSCLC = test system: A549 NSCLC
T-47D breast = test system: T-47D breast
SF-539 CNS = test system: SF-539 CNS
CAKI-1 renal = test system: CAKI-1 renal
OVCAR-5 ovarian = test system: OVCAR-5 ovarian
SR leukemia = test system: SR leukemia
HT29 colon = test system: HT29 colon
PC-3 prostate = test system: PC-3 prostate
SN12C renal = test system: SN12C renal
U251 CNS = test system: U251 CNS
SNB-75 CNS = test system: SNB-75 CNS
NCI-H522 lung = test system: NCI-H522 lung
M14 melanoma = test system: M14 melanoma
HOP-92 NSCLC = test system: HOP-92 NSCLC
RPMI-8226 leukemia = test system: RPMI-8226 leukemia
TK-10 renal = test system: TK-10 renal
HL-60(TB) leukemia = test system: HL-60(TB) leukemia
MDA-MB-231 breast = test system: MDA-MB-231 breast
UO-31 renal = test system: UO-31 renal
NCI/ADR-RES ovarian = test system: NCI/ADR-RES ovarian
SK-MEL-5 melanoma = test system: SK-MEL-5 melanoma
DU-145 prostate = test system: DU-145 prostate
MDA-MB-435 = test system: MDA-MB-435
A498 renal = test system: A498 renal
HOP-62 NSCLC = test system: HOP-62 NSCLC
OVCAR-8 ovarian = test system: OVCAR-8 ovarian
BT-549 breast = test system: BT-549 breast
RXF 393 renal = test system: RXF 393 renal
K-562 leukemia = test system: K-562 leukemia

## Cc1ccc2c(c1)c(C1=C(c3cn(C)c4ccccc34)C(=O)NC1=O)cn2C
LOX IMVI melanoma
  GI50: 2930 nM
  TGI: > 23.4 µM
HS 578T breast
  GI50: 595 nM
  TGI: 3.55 µM
SK-MEL-2 melanoma
  GI50: 1420 nM
  TGI: 6.81 µM
COLO 205 colon
  GI50: 1490 nM
  TGI: 7.18 µM
UACC-257 melanoma
  GI50: 3.39 µM
  TGI: > 24.2 µM
OVCAR-3 ovarian
  GI50: 904 nM
  TGI: 3.44 µM
ACHN renal
  GI50: 3.09 µM
  TGI: > 23.4 µM
OVCAR-4 ovarian
  GI50: 3.79 µM
  TGI: > 21.8 µM
786-0 renal
  GI50: 5.21 µM
  TGI: > 22.8 µM
CCRF-CEM leukemia
  GI50: 1320 nM
  TGI: 13.3 µM
NCI-H226 lung
  GI50: 3.57 µM
  TGI: 13 µM
SK-OV-3 ovarian
  GI50: 2720 nM
  TGI: > 25 µM
SK-MEL-28 melanoma
  GI50: 4 µM
  TGI: > 22.5 µM
HCT-116 colon
  GI50: 1360 nM
  TGI: 10.2 µM
NCI-H23 lung
  GI50: 4.9 µM
  TGI: > 25 µM
NCI-H460 lung
  GI50: 1260 nM
  TGI: 9.01 µM
SF-295 CNS
  GI50: 1400 nM
  TGI: > 15.7 µM
SNB-19 CNS
  GI50: 8.15 µM
  TGI: > 25 µM
SF-268 CNS
  GI50: 3.09 µM
  TGI: > 25 µM
UACC-62 melanoma
  GI50: 1350 nM
  TGI: 9.79 µM
IGROV1 ovarian
  GI50: 5.23 µM
  TGI: > 14.9 µM
MOLT-4 leukemia
  GI50: 2560 nM
  TGI: 13.9 µM
HCT-15 colon
  GI50: 1390 nM
  TGI: > 25 µM
SW-620 colon
  GI50: 1160 nM
  TGI: > 25 µM
HCC-2998 colon
  GI50: 9.25 µM
  TGI: > 25 µM
MALME-3M melanoma
  GI50: 4.4 µM
  TGI: > 21.4 µM
KM12 colon
  GI50: 1920 nM
  TGI: 9.09 µM
MCF7 breast
  GI50: 1080 nM
  TGI: > 16.3 µM
A549 NSCLC
  GI50: 1970 nM
  TGI: > 25 µM
T-47D breast
  GI50: 4 µM
  TGI: 20 µM
SF-539 CNS
  GI50: 1110 nM
  TGI: 5.58 µM
CAKI-1 renal
  GI50: 3.63 µM
  TGI: > 25 µM
OVCAR-5 ovarian
  GI50: 10.8 µM
  TGI: > 25 µM
SR leukemia
  GI50: 966 nM
  TGI: 9.81 µM
HT29 colon
  GI50: 1010 nM
  TGI: 6.77 µM
PC-3 prostate
  GI50: 1750 nM
  TGI: > 25 µM
SN12C renal
  GI50: 3.12 µM
  TGI: 16.8 µM
U251 CNS
  GI50: 1520 nM
  TGI: > 25 µM
SNB-75 CNS
  GI50: 723 nM
  TGI: > 17.8 µM
NCI-H522 lung
  GI50: 927 nM
  TGI: 12.2 µM
M14 melanoma
  GI50: 2070 nM
  TGI: > 25 µM
HOP-92 NSCLC
  GI50: 5.96 µM
  TGI: > 22.1 µM
RPMI-8226 leukemia
  GI50: 2190 nM
  TGI: 9.18 µM
TK-10 renal
  GI50: 8.67 µM
  TGI: > 25 µM
HL-60(TB) leukemia
  GI50: 1330 nM
  TGI: 11.3 µM
MDA-MB-231 breast
  GI50: 6.93 µM
  TGI: > 25 µM
UO-31 renal
  GI50: 2770 nM
  TGI: 13.8 µM
NCI/ADR-RES ovarian
  GI50: 3.23 µM
  TGI: > 25 µM
SK-MEL-5 melanoma
  GI50: 1480 nM
  TGI: 5.07 µM
DU-145 prostate
  GI50: 6.73 µM
  TGI: 22.2 µM
MDA-MB-435
  GI50: 674 nM
  TGI: > 11.2 µM
A498 renal
  GI50: 1340 nM
  TGI: 6.14 µM
HOP-62 NSCLC
  GI50: 3.17 µM
  TGI: > 25 µM
OVCAR-8 ovarian
  GI50: 5.3 µM
  TGI: > 25 µM
BT-549 breast
  GI50: 3.65 µM
  TGI: 11.1 µM
RXF 393 renal
  GI50: 1540 nM
  TGI: 4.79 µM
K-562 leukemia
  GI50: 1530 nM
  TGI: > 25 µM
